“And” between values parts separate entries of the source, which are not always exact repeats. Equal values may be shown once. Read-outs that look alike come from different tables or passages of the source.
Experiment: Furathiocarb biotransformation kinetics in individual human hepatic microsomes (10 donors)
Format: in vitro ADME
Settings: for Km: human
Method: The incubation mixture (ﬁnal volume of 200 µl of 0.1 M phosphate buffer) contained 50 and 100 µM furathiocarb, 0.15 mg pooled liver microsomal protein (n = 10), and 1 mM NADPH. The reaction was initiated by NADPH after a 2 min pre-incubation at + 37 °C and was incubated for 30 min at + 37 °C. The reaction stopped with ice-cold acetonitrile containing an internal standard.
Enzyme kinetic parameters of both the microsomal samples and rCYP enzymes were measured. The incubation mixture contained furathiocarb (2.5, 10, 25, 50, 150 and 300 µM). Incubation times were 20 and 30 min for microsomal samples and rCYPs, respectively. Otherwise incubation mixtures and methods were the same as in metabolite identification. The rate of sum of furathiocarb metabolite formation was linear at least up to 0.15 mg protein/ml and 30 min incubation time in the standard experimental conditions.
The standard incubation mixture contained 50 and 100 µM furathiocarb, 0.15 mg pooled liver microsomal protein (n = 10), and 1 mM NADPH in a ﬁnal volume of 200 µl of 0.1 M phosphate buffer (pH 7.4). Furathiocarb was prepared once a week in dimethylsulfoxide (DMSO; ﬁnal amount in the reaction medium 1.0%). After a 2-min incubation at +37 ◦C in a shaking incubator block, the reaction was started by adding NADPH. The mixture was incubated at +37 ◦C for 30 min and the reaction was stopped with 600 µl of ice-cold acetonitrile containing an internal standard. All incubations were carried out in triplicate.

CCCCOC(=O)N(C)SN(C)C(=O)Oc1cccc2c1OC(C)(C)C2 [furathiocarb, Furathiocarb]
CLint, sum of carbofuran metabolic pathway (HLM20): 310.4 µL (mg protein min)
CLint, sum of furathiocarb oxidation pathways (HLM20): 12.63 µL (mg protein min)
Vmax, sum of carbofuran metabolic pathway (HLM20): 19.6 ± 1.7 nmol (mg protein min)
Vmax, sum of furathiocarb oxidation pathways (HLM20): 4.3 ± 0.8 nmol (mg protein min)
carbofuran pathway / oxidation pathways (CLint ratio) (HLM20): 24.5 fold
CLint, sum of carbofuran metabolic pathway (HLM21): 339.0 µL (mg protein min)
CLint, sum of furathiocarb oxidation pathways (HLM21): 9.22 µL (mg protein min)
Vmax, sum of carbofuran metabolic pathway (HLM21): 22.6 ± 2.5 nmol (mg protein min)
Vmax, sum of furathiocarb oxidation pathways (HLM21): 4.1 ± 1.1 nmol (mg protein min)
carbofuran pathway / oxidation pathways (CLint ratio) (HLM21): 36.8 fold
CLint, sum of carbofuran metabolic pathway (HLM22): 619.7 µL (mg protein min)
Vmax, sum of carbofuran metabolic pathway (HLM22): 44.5 nmol/ (mg protein min) and 44.5 ± 5.1 nmol/ (mg protein min)
CLint, sum of carbofuran metabolic pathway (HLM23): 348.6 µL (mg protein min)
CLint, sum of furathiocarb oxidation pathways (HLM23): 13.48 µL (mg protein min)
Vmax, sum of carbofuran metabolic pathway (HLM23): 17.4 ± 1.6 nmol (mg protein min)
Vmax, sum of furathiocarb oxidation pathways (HLM23): 3.5 ± 7.3 nmol (mg protein min)
carbofuran pathway / oxidation pathways (CLint ratio) (HLM23): 25.9 fold
CLint, sum of carbofuran metabolic pathway (HLM24): 404.5 µL (mg protein min)
CLint, sum of furathiocarb oxidation pathways (HLM24): 12.25 µL (mg protein min)
Vmax, sum of carbofuran metabolic pathway (HLM24): 21.9 ± 2.1 nmol (mg protein min)
Vmax, sum of furathiocarb oxidation pathways (HLM24): 5.1 ± 1.3 nmol (mg protein min)
carbofuran pathway / oxidation pathways (CLint ratio) (HLM24): 33.0 fold
CLint, sum of carbofuran metabolic pathway (HLM28): 779.6 µL (mg protein min)
CLint, sum of furathiocarb oxidation pathways (HLM28): 6.75 µL (mg protein min)
Vmax, sum of carbofuran metabolic pathway (HLM28): 43.6 ± 4.7 nmol (mg protein min)
Vmax, sum of furathiocarb oxidation pathways (HLM28): 11.5 nmol/ (mg protein min) and 11.5 ± 6.4 nmol/ (mg protein min)
carbofuran pathway / oxidation pathways (CLint ratio) (HLM28): 115 fold and 115.4 fold
CLint, sum of carbofuran metabolic pathway (HLM29): 378.2 µL (mg protein min)
CLint, sum of furathiocarb oxidation pathways (HLM29): 10.73 µL (mg protein min)
Vmax, sum of carbofuran metabolic pathway (HLM29): 24.3 ± 2.5 nmol (mg protein min)
Vmax, sum of furathiocarb oxidation pathways (HLM29): 5.3 ± 1.4 nmol (mg protein min)
carbofuran pathway / oxidation pathways (CLint ratio) (HLM29): 35.2 fold
CLint, sum of carbofuran metabolic pathway (HLM30): 701.2 µL (mg protein min)
CLint, sum of furathiocarb oxidation pathways (HLM30): 10.99 µL (mg protein min)
Vmax, sum of carbofuran metabolic pathway (HLM30): 18.2 ± 1.8 nmol (mg protein min)
Vmax, sum of furathiocarb oxidation pathways (HLM30): 5.1 ± 1.3 nmol (mg protein min)
carbofuran pathway / oxidation pathways (CLint ratio) (HLM30): 64 fold and 63.8 fold
CLint, sum of carbofuran metabolic pathway (HLM31): 244 µl/ (mg protein min) and 244.3 µl/ (mg protein min)
CLint, sum of furathiocarb oxidation pathways (HLM31): 7.0 µl/ (mg protein min) and 7.00 µl/ (mg protein min)
Vmax, sum of carbofuran metabolic pathway (HLM31): 15.5 nmol/ (mg protein min) and 15.5 ± 1.1 nmol/ (mg protein min)
Vmax, sum of furathiocarb oxidation pathways (HLM31): 1.7 nmol/ (mg protein min) and 1.7 ± 0.3 nmol/ (mg protein min)
carbofuran pathway / oxidation pathways (CLint ratio) (HLM31): 34.9 fold
CLint, sum of carbofuran metabolic pathway (HLM32): 399.9 µL (mg protein min)
CLint, sum of furathiocarb oxidation pathways (HLM32): 13.04 µL (mg protein min)
Vmax, sum of carbofuran metabolic pathway (HLM32): 15.5 nmol/ (mg protein min) and 15.5 ± 1.4 nmol/ (mg protein min)
Vmax, sum of furathiocarb oxidation pathways (HLM32): 3.7 ± 0.6 nmol (mg protein min)
carbofuran pathway / oxidation pathways (CLint ratio) (HLM32): 30.6 fold
Km (pH 7.4, HLM20, read-out: Km, sum of carbofuran metabolic pathway): 63.2 ± 16.3 µM
Km (pH 7.4, HLM20, read-out: Km, sum of furathiocarb oxidation pathways): 343 ± 128 µM
Km (pH 7.4, HLM21, read-out: Km, sum of carbofuran metabolic pathway): 66.7 ± 20.6 µM
Km (pH 7.4, HLM21, read-out: Km, sum of furathiocarb oxidation pathways): 453 ± 215 µM
Km (pH 7.4, HLM22, read-out: Km, sum of carbofuran metabolic pathway): 71.8 ± 21.7 µM
Km (pH 7.4, HLM23, read-out: Km, sum of carbofuran metabolic pathway): 50 ± 14.1 µM
Km (pH 7.4, HLM23, read-out: Km, sum of furathiocarb oxidation pathways): 260 ± 117 µM
Km (pH 7.4, HLM24, read-out: Km, sum of carbofuran metabolic pathway): 54.3 ± 16.1 µM
Km (pH 7.4, HLM24, read-out: Km, sum of furathiocarb oxidation pathways): 410 ± 197 µM
Km (pH 7.4, HLM28, read-out: Km, sum of carbofuran metabolic pathway): 55.8 ± 18 µM
Km (pH 7.4, HLM28, read-out: Km, sum of furathiocarb oxidation pathways): 1710 ± 852 µM
Km (pH 7.4, HLM29, read-out: Km, sum of carbofuran metabolic pathway): 64.2 ± 18.9 µM
Km (pH 7.4, HLM29, read-out: Km, sum of furathiocarb oxidation pathways): 495 ± 237 µM
Km (pH 7.4, HLM30, read-out: Km, sum of carbofuran metabolic pathway): 25.9 ± 9.5 µM
Km (pH 7.4, HLM30, read-out: Km, sum of furathiocarb oxidation pathways): 456 ± 208 µM
Km (pH 7.4, HLM31, read-out: Km, sum of carbofuran metabolic pathway): 63.3 ± 13.4 µM
Km (pH 7.4, HLM31, read-out: Km, sum of furathiocarb oxidation pathways): 239 ± 79.5 µM
Km (pH 7.4, HLM32, read-out: Km, sum of carbofuran metabolic pathway): 38.8 ± 11.3 µM
Km (pH 7.4, HLM32, read-out: Km, sum of furathiocarb oxidation pathways): 280 ± 102 µM
Ratio carbofuran metabolic pathway / furathiocarb oxidation pathway (range in 10-donor panel of hepatic microsomes): 24- to 115 fold
